Measurements: PMC11257039, “VCP activator reverses nuclear proteostasis defects and enhances TDP-43 aggregate clearance in multisystem proteinopathy models” (The Journal of Clinical Investigation, 2024)
Several values for one entry are separate records, joined by “and”; a condition that tells them apart may be missing. Equal values may be shown once. Entries after “also recorded” stand apart in the source; their conditions may differ.

Tests used:
recombinant WT VCP [1] = molecular target: T1, recombinant WT VCP (Mus musculus, UniProt Q01853); test: Kinase-Glo ATPase assay, recombinant WT VCP; assay type: biochemical; conditions: for ATP consumed: WT VCP no UN
T1 construct: in the full-length recombinant VCP; His (N); made in house; host or cells: Escherichia coli BL21-CodonPlus (DE3)-RIL
Description: (§1) Experiments with varied activator concentration and screening were measured using the Kinase-Glo Luminescent Kinase Assay (Promega). Reactions were incubated at 25°C for 1 hour then reduced to 4°C in a thermocycler consisting of 50 nM of recombinant VCP with or without 50 nM UFD1/NPLOC4 in 50 uL ATPase buffer (25 mM HEPES, pH 7.5, 100 mM NaCl, 10 mM MgCl2) at 2% DMSO with 62.5 μM ATP and a range of activator concentrations (Gibco, Sigma-Aldrich). Equal volumes of reaction and Kinase-Glo reagent were incubated for 20 minutes at room temperature in a 96 well white flat bottom plate (Corning). Luminescence was measured in a microplate reader (Spark 20M, Tecan).
(§2) Experiments with varied compound concentration were fit to a 3-parameter dose curve with asymmetric profile likelihood 95% confidence intervals in GraphPad Prism 9 (GraphPad). Experiments with varied ATP concentration were fit to a Michaelis-Menten model with asymmetric profile likelihood 95% confidence intervals. Significance was determined for experiments with fixed compound or fixed ATP concentration using a linear mixed-effects model.

WT VCP + Ufd1/Nploc4 = molecular target: T2, WT VCP + Ufd1/Nploc4 (Mus musculus, UniProt Q01853); test: Kinase-Glo ATPase assay, WT VCP with UFD1/NPLOC4 (UN); assay type: biochemical; conditions: for ATP consumed: WT VCP with UN
T2 construct: in the full-length recombinant VCP; His (N); made in house; host or cells: E. coli (VCP: BL21-CodonPlus (DE3)-RIL; UFD1 and NPLOC4: E. coli (DE3), purified by the MD Anderson core)
Description: as §1, §2

recombinant WT VCP [2] = molecular target: T1, recombinant WT VCP; test: MESG-PNP (EnzCheck) phosphate release ATPase assay, WT VCP; assay type: biochemical; conditions: for ATPase activity v0/ET: 25 μM compound, replicate experiments
Description: (§3) All other experiments were performed using the EnzCheck phosphatase assay kit (Molecular Probes). ATPase activity was measured in a 96-well flat bottom plate (Thermo Fisher Scientific). 50 nM VCP was incubated in 100 μL ATPase buffer with 2% DMSO with 25 μM compound and various ATP concentrations. The absorbance at 360 ± 5 nm was measured for more than 15 minutes at 25°C. Phosphate release was quantified based on a phosphate standard curve performed on the same plate. Initial enzyme velocity was determined by fitting the linear portion of the data to a linear regression model.
as §2

26S proteasome = 26S proteasome activity, Suc-LLVY-AMC fluorescence; assay type: biochemical, human; conditions: 25 μM compound, versus 1% DMSO
Description: 26S proteasome and substrate suc-LLVY-AMC were purchased (LifeSensors, Inc.). Fluorescence was measured in a microplate reader using a 96-well optical bottom black plate (Thermo Fisher Scientific). […] 26S proteasome was incubated in 100 μL proteasome buffer (20 mM HEPES, pH 7.5, 0.5 mM EDTA, 0.05% Triton-X) with 100 μM suc-LLVY-AMC, 1 mM ATP, and 25 μM compound or 1% DMSO. Fluorescence was measured at excitation 380 ± 10nm and emission 460 ± 10nm for more than 15 minutes at 37°C. Initial velocity was determined by fitting the linear portion of the data to a linear regression model. Significance was determined for using a linear mixed-effects model.

[3] = tested on: WT HeLa cells expressing GFP-TDP-4FL; test: Flow cytometry of GFP-TDP-4FL integrated fluorescence, WT HeLa; assay type: cell-based; conditions: for Integrated Fluorescence WT (Normalized to CHX): replicate values
Description: Drug treatments were performed on neurons 7 days after lentiviral transduction and 14 days after neuronal induction. HeLa cells were collected using trypsin and pelleted at 1000g for 3 minutes. Cell pellets were resuspended in colorless DMEM (Invitrogen) supplemented with 2% FBS and filtered through a BD tube with cell strainer (BD Biosciences) for flow cytometry analysis on LSR II (BD Biosciences). Data analysis was performed on FlowJo v10 software. Integrated fluorescence intensity was determined by multiplying percent positive GFP and GFP median fluorescence values.

luciferase = test: Luciferase counter assay: Kinase-Glo with 62.5 μM ATP without recombinant VCP; assay type: biochemical; conditions: for measured ATP consumed (nmol) without VCP: replicate values
Description: as §1
(A-D) Measured ATP as determined by a Kinase-Glo assay of 62.5μM ATP in the presence of increasing concentrations of compound without recombinant VCP present. (for all panels: n=3 with 4 technical replicates per experiment, points are expressed as beta ± SE, linear mixed effects model, P>0.05 for each […]
(1 picture or pasted object on this page, not shown here)

A232E VCP = molecular target: T3, A232E VCP (Mus musculus, UniProt Q01853, A232E); test: MESG-PNP ATPase assay, recombinant A232E VCP; assay type: biochemical; conditions: VCP Mutation A232E; replicate values
T3 construct: in the full-length recombinant VCP; His (N); made in house; host or cells: Escherichia coli BL21-CodonPlus (DE3)-RIL
Description: as §3
(§4) Figure S8. VCP activators variable effect on ATPase activity of MSP associated mutations in recombinant VCP. ATPase activity of 50 nM recombinant VCP protein was measured using an MESG-PNP assay upon treatment with 25 μM compound versus 2% DMSO control at 1mM ATP for WT (also shown in Fig. 5c), A232E, R155H, and R159H (n=3 with 3 technical replicated per experiment; points are expressed as beta ± SE, linear effects model: *P<0.05,**P<0.01; ***P<0.001; ****P<0.0001).

R155H VCP = molecular target: T4, R155H VCP (Mus musculus, UniProt Q01853, R155H); test: MESG-PNP ATPase assay, recombinant R155H VCP; assay type: biochemical; conditions: VCP Mutation R155H; replicate values
T4 construct: in the full-length recombinant VCP; His (N); made in house; host or cells: Escherichia coli BL21-CodonPlus (DE3)-RIL
Description: as §3, §4

R159H VCP = molecular target: T5, R159H VCP (Mus musculus, UniProt Q01853, R159H); test: MESG-PNP ATPase assay, recombinant R159H VCP; assay type: biochemical; conditions: VCP Mutation R159H; replicate values
T5 construct: in the full-length recombinant VCP; His (N); made in house; host or cells: Escherichia coli BL21-CodonPlus (DE3)-RIL
Description: as §3, §4

T3 sequence (Q01853 whole entry A232E): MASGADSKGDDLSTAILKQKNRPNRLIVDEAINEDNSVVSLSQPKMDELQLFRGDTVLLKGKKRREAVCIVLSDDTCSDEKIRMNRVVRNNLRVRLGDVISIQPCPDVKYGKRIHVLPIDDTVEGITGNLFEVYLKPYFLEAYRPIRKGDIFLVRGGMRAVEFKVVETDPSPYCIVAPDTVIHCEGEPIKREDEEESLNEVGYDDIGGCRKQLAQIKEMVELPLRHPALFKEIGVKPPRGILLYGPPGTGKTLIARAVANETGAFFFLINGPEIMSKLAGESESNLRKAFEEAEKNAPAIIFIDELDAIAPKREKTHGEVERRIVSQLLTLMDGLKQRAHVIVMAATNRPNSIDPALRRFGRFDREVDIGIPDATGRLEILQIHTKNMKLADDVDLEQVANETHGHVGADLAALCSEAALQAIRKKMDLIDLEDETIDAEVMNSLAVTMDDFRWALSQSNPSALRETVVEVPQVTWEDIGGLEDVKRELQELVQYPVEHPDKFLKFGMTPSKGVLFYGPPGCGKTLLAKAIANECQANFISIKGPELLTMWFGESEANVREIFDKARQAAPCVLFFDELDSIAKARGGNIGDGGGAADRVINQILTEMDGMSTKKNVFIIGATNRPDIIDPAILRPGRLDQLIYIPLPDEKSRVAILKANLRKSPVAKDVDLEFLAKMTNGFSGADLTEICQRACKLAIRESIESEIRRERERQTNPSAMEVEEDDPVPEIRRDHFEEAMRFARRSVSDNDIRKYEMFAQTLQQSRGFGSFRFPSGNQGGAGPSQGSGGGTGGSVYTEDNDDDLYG
T5 sequence (Q01853 whole entry R159H): as the sequence (Q01853 whole entry A232E) above, with R159H, E232A counted along it
T2 sequence (Q01853 whole entry): as the sequence (Q01853 whole entry A232E) above, with E232A counted along it
T2 sequence (Q92890 whole entry partner): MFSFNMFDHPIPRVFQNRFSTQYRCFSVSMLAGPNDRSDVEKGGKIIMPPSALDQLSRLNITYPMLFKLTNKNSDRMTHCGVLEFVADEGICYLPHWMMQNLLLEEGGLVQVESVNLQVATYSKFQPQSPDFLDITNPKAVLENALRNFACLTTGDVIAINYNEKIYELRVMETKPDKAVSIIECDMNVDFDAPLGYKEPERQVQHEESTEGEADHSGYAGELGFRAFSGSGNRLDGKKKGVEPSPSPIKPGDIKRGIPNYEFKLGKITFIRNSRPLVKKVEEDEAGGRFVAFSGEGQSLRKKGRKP
T2 sequence (Q8TAT6 whole entry partner): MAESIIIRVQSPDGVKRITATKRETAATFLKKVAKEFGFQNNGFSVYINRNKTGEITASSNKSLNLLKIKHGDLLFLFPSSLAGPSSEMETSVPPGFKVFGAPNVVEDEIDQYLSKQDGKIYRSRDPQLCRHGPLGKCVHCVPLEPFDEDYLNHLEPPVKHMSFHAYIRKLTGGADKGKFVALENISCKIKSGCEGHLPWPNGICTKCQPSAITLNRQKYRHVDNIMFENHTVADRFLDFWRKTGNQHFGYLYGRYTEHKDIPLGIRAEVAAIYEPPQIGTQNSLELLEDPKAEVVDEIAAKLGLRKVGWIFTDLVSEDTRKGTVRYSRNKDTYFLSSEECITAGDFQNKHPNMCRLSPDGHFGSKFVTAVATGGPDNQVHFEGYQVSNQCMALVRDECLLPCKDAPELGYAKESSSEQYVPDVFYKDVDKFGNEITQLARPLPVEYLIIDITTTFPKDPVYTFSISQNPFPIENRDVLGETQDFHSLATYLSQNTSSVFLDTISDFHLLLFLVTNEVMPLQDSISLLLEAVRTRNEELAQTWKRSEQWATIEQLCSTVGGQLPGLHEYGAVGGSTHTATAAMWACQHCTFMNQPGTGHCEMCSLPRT
T1 sequence (Q01853 whole entry): as the sequence (Q01853 whole entry A232E) above, with E232A counted along it
T4 sequence (Q01853 whole entry R155H): as the sequence (Q01853 whole entry A232E) above, with R155H, E232A counted along it

Structure (SMILES): O=C(OCCN(C1=NS(=O)(=O)c2ccccc21)c1ccc(Cl)cc1)c1ccco1 [UP163]
- EC50 (recombinant WT VCP [1]; EC50 (μM) (95% CI), WT VCP without UN, 50 nM VCP, 62.5 μM ATP, 2% DMSO): 9 µM
- ATP consumed (recombinant WT VCP [1]; 1.56 μM compound): 0.996 nmol and 1.192 nmol and 1.605 nmol
- ATP consumed (recombinant WT VCP [1]; 3.13 μM compound): 0.935 nmol and 1.312 nmol and 1.332 nmol
- ATP consumed (recombinant WT VCP [1]; 6.25 μM compound): 1.040 nmol and 1.494 nmol and 1.616 nmol
- ATP consumed (recombinant WT VCP [1]; 12.5 μM compound): 1.105 nmol and 1.570 nmol and 1.588 nmol
- ATP consumed (recombinant WT VCP [1]; 25 μM compound): 1.206 nmol and 1.717 nmol and 1.792 nmol
- ATP consumed (recombinant WT VCP [1]; 50 μM compound): 1.416 nmol and 2.232 nmol and 2.160 nmol
- ATP consumed (recombinant WT VCP [1]; 100 μM compound): 1.546 nmol and 2.072 nmol and 2.521 nmol
- ATP consumed (recombinant WT VCP [1]; 200 μM compound): 1.557 nmol and 2.138 nmol and 2.227 nmol
- recombinant WT VCP ATPase activity (recombinant WT VCP [1]; in vitro validation of 106 screen hits): significantly increased
- increase of VCP activity (recombinant WT VCP [1]; maximum, WT VCP without UN): 104%
- change in EC50 with UN compared to without UN (WT VCP + Ufd1/Nploc4): no change in EC50
- change in maximum percent activity with UN compared to without UN (WT VCP + Ufd1/Nploc4): significantly decreased
- EC50 (WT VCP + Ufd1/Nploc4; WT VCP + Ufd1/Nploc4, 1:1 molar ratio): 8.9 µM
- ATP consumed (WT VCP + Ufd1/Nploc4; 1.56 μM compound): 1.198 nmol and 1.183 nmol and 1.402 nmol
- ATP consumed (WT VCP + Ufd1/Nploc4; 3.13 μM compound): 1.366 nmol and 1.295 nmol and 1.519 nmol
- ATP consumed (WT VCP + Ufd1/Nploc4; 6.25 μM compound): 1.504 nmol and 1.416 nmol and 1.656 nmol
- ATP consumed (WT VCP + Ufd1/Nploc4; 12.5 μM compound): 1.666 nmol and 1.564 nmol and 1.799 nmol
- ATP consumed (WT VCP + Ufd1/Nploc4; 25 μM compound): 1.783 nmol and 1.641 nmol and 1.890 nmol
- ATP consumed (WT VCP + Ufd1/Nploc4; 50 μM compound): 1.844 nmol and 1.710 nmol and 1.941 nmol
- ATP consumed (WT VCP + Ufd1/Nploc4; 100 μM compound): 1.839 nmol and 1.775 nmol and 1.995 nmol
- ATP consumed (WT VCP + Ufd1/Nploc4; 200 μM compound): 1.798 nmol and 1.691 nmol and 2.001 nmol
- kcat (nmol Pi / nmol VCP / s) (95% CI) (recombinant WT VCP [2]; 25 μM activator): 0.366 (0.335, 0.401) nmol Pi / nmol VCP / s
- increase in kcat (recombinant WT VCP [2]; 25 μM activator, versus DMSO): more than 50%
- ATPase activity v0/ET (recombinant WT VCP [2]; [ATP] 62.5 μM): 0.201 nmol Pi / nmol VCP / s and 0.212 nmol Pi / nmol VCP / s and 0.198 nmol Pi / nmol VCP / s
- ATPase activity v0/ET (recombinant WT VCP [2]; [ATP] 125 μM): 0.260 nmol Pi / nmol VCP / s and 0.250 nmol Pi / nmol VCP / s and 0.255 nmol Pi / nmol VCP / s
- ATPase activity v0/ET (recombinant WT VCP [2]; [ATP] 250 μM): 0.300 nmol Pi / nmol VCP / s and 0.288 nmol Pi / nmol VCP / s and 0.278 nmol Pi / nmol VCP / s
- ATPase activity v0/ET (recombinant WT VCP [2]; [ATP] 500 μM): 0.335 nmol Pi / nmol VCP / s and 0.312 nmol Pi / nmol VCP / s and 0.331 nmol Pi / nmol VCP / s
- ATPase activity v0/ET (recombinant WT VCP [2]; [ATP] 1000 μM): 0.366 nmol Pi / nmol VCP / s and 0.351 nmol Pi / nmol VCP / s and 0.360 nmol Pi / nmol VCP / s
- % activity of 26S proteasome (26S proteasome): 101.6% and 88.7% and 86.5% and 112.7% and 93.3% and 91.5%
- Integrated Fluorescence WT (Normalized to CHX) ([3]; 5μM compound with CHX): 1.026 and 0.947 and 1.013 and 0.859 and 0.810
- Integrated Fluorescence WT (Normalized to CHX) ([3]; 20μM compound with CHX): 0.921 and 1.001 and 0.939 and 1.006 and 0.777 and 0.710
- clearance of GFP-TDP-4FL aggregates (integrated fluorescence) ([3]; MG132, then CHX with 5 or 20 μM activator): enhances clearance of TDP-4FL inclusions; also recorded: slightly enhanced clearance
- luciferase activity (measured ATP without VCP) (luciferase; 62.5 μM ATP, increasing concentrations of compound): did not inhibit luciferase activity
- measured ATP consumed (nmol) without VCP (luciferase; compound 6.25 μM): 3.139 nmol and 3.185 nmol and 3.132 nmol and 3.341 nmol and 3.220 nmol and 3.273 nmol and 3.147 nmol and 3.064 nmol and 3.275 nmol and 3.208 nmol and 3.040 nmol and 3.045 nmol
- measured ATP consumed (nmol) without VCP (luciferase; compound 12.5 μM): 3.118 nmol and 3.105 nmol and 3.142 nmol and 3.139 nmol and 3.279 nmol and 3.429 nmol and 3.221 nmol and 3.237 nmol and 3.278 nmol and 3.379 nmol and 3.331 nmol and 3.029 nmol
- measured ATP consumed (nmol) without VCP (luciferase; compound 25 μM): 3.141 nmol and 3.208 nmol and 3.280 nmol and 3.310 nmol and 3.135 nmol and 3.015 nmol and 3.257 nmol and 3.266 nmol and 3.329 nmol and 3.083 nmol and 3.153 nmol
- measured ATP consumed (nmol) without VCP (luciferase; compound 50 μM): 3.191 nmol and 3.073 nmol and 3.250 nmol and 3.386 nmol and 3.272 nmol and 3.113 nmol and 3.202 nmol and 3.171 nmol and 3.209 nmol and 3.373 nmol and 3.530 nmol and 3.028 nmol
- measured ATP consumed (nmol) without VCP (luciferase; compound 100 μM): 3.232 nmol and 3.235 nmol and 3.017 nmol and 3.209 nmol and 3.245 nmol and 3.024 nmol and 3.264 nmol and 3.329 nmol and 3.427 nmol and 3.000 nmol and 3.076 nmol
- measured ATP consumed (nmol) without VCP (luciferase; compound 200 μM): 3.190 nmol (2×) and 3.291 nmol and 3.314 nmol and 3.330 nmol and 3.165 nmol and 3.125 nmol and 3.456 nmol and 3.010 nmol and 3.038 nmol and 3.261 nmol and 3.272 nmol
- ATPase activity, nmol Pi / nmol VCP / s (A232E VCP): 0.830 nmol Pi / nmol VCP / s and 0.637 nmol Pi / nmol VCP / s and 0.764 nmol Pi / nmol VCP / s
- ATPase activity, nmol Pi / nmol VCP / s (R155H VCP): 0.759 nmol Pi / nmol VCP / s and 0.647 nmol Pi / nmol VCP / s and 0.706 nmol Pi / nmol VCP / s
- ATPase activity, nmol Pi / nmol VCP / s (R159H VCP): 0.812 nmol Pi / nmol VCP / s and 0.873 nmol Pi / nmol VCP / s and 0.726 nmol Pi / nmol VCP / s
